# Test results as given in PubChem BioAssay (NCI).
#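 At the GI50, growth is halved. At the TGI there is no net growth.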
# What was measured:
# Assay in all cases: inhibition of tumour cell growth, NCI panel, 384-well format
# [1] = tested on: MALME-3M melanoma
# [2] = tested on: U251 glioblastoma
# [3] = tested on: M14 melanoma
# [4] = tested on: OVCAR-5 ovarian
# [5] = tested on: HL-60(TB) leukemia
# [6] = tested on: MCF7 breast
# [7] = tested on: HOP-92 NSCLC
# [8] = tested on: MDA-MB-435 melanoma
# [9] = tested on: HT29 colon
# [10] = tested on: NCI-H23 lung
# [11] = tested on: SN12C renal
# [12] = tested on: MOLT-4 leukemia
# [13] = tested on: T-47D breast
# [14] = tested on: SNB-75 CNS
# [15] = tested on: COLO 205 colon
# [16] = tested on: RPMI-8226 leukemia
# [17] = tested on: NCI-H460 NSCLC
# [18] = tested on: DU-145 prostate
# [19] = tested on: HS 578T breast
# [20] = tested on: MDA-MB-468 breast
# [21] = tested on: 786-0 renal
# [22] = tested on: SK-MEL-2 melanoma
# [23] = tested on: SNB-19 CNS
# [24] = tested on: RXF 393 renal
# [25] = tested on: IGROV1 ovarian
# [26] = tested on: TK-10 renal
# [27] = tested on: CAKI-1 renal
# [28] = tested on: HCT-15 colon
# [29] = tested on: NCI-H522 lung
# [30] = tested on: K-562 leukemia
# [31] = tested on: OVCAR-3 ovarian
# [32] = tested on: EKVX NSCLC
# [33] = tested on: HCT-116 colon
# [34] = tested on: CCRF-CEM leukemia
# [35] = tested on: HCC-2998 colon
# [36] = tested on: ACHN renal
# [37] = tested on: SK-MEL-5 melanoma
# [38] = tested on: UACC-62 melanoma
# [39] = tested on: LOX IMVI melanoma
# [40] = tested on: UACC-257 melanoma
smiles,measurement,setting,value
O=C1CCc2c(Oc3ccc4c(c3)[C@H]3[C@@H](O4)[C@@H]3c3nc4ccc(C(F)(F)F)cc4[nH]3)ccnc2N1,TGI,[1],0.0322 µM
same,GI50,[2],3.39 µM
same,TGI,[2],> 100 µM
same,GI50,[3],0.0134 µM
same,TGI,[3],0.119 µM
same,GI50,[4],0.793 µM
same,TGI,[4],> 100 µM
same,GI50,[5],0.0857 µM
same,TGI,[5],0.21 µM
same,GI50,[6],0.294 µM
same,TGI,[6],1.17 µM
same,GI50,[7],1.65 µM
same,TGI,[7],3.91 µM
same,GI50,[8],0.0302 µM
same,TGI,[8],0.169 µM
same,GI50,[9],0.206 µM
same,TGI,[9],> 100 µM
same,GI50,[10],0.169 µM
same,TGI,[10],0.454 µM
same,GI50,[11],2.08 µM
same,TGI,[11],> 100 µM
same,GI50,[12],1.14 µM
same,TGI,[12],2.38 µM
same,GI50,[13],1.69 µM
same,TGI,[13],6.94 µM
same,GI50,[14],4.41 µM
same,TGI,[14],> 100 µM
same,GI50,[15],0.018 µM
same,TGI,[15],0.348 µM
same,GI50,[16],0.166 µM
same,TGI,[16],0.304 µM
same,GI50,[17],1.67 µM
same,TGI,[17],> 100 µM
same,GI50,[18],2.94 µM
same,TGI,[18],> 100 µM
same,GI50,[19],1.6 µM
same,TGI,[19],7.13 µM
same,GI50,[20],1.06 µM
same,TGI,[20],3.33 µM
same,GI50,[21],3.17 µM
same,TGI,[21],> 100 µM
same,GI50,[22],0.258 µM
same,TGI,[22],1.21 µM
same,GI50,[23],4.79 µM
same,TGI,[23],> 100 µM
same,GI50,[24],0.188 µM
same,TGI,[24],0.331 µM
same,GI50,[25],0.789 µM
same,TGI,[25],7.13 µM
same,GI50,[26],1.83 µM
same,TGI,[26],8.27 µM
same,GI50,[27],1.26 µM
same,TGI,[27],> 100 µM
same,GI50,[28],2.42 µM
same,TGI,[28],> 100 µM
same,GI50,[29],0.154 µM
same,TGI,[29],0.292 µM
same,GI50,[30],0.0201 µM
same,TGI,[30],0.05 µM
same,GI50,[31],3.57 µM
same,TGI,[31],> 100 µM
same,GI50,[32],1.64 µM
same,TGI,[32],8.38 µM
same,GI50,[33],0.494 µM
same,TGI,[33],3.58 µM
same,GI50,[34],1.2 µM
same,TGI,[34],3.05 µM
same,GI50,[35],1.2 µM
same,TGI,[35],5.98 µM
same,GI50,[36],0.241 µM
same,TGI,[36],0.592 µM
same,GI50,[37],0.0549 µM
same,TGI,[37],1.48 µM
same,GI50,[38],0.0173 µM
same,TGI,[38],0.119 µM
same,GI50,[39],0.113 µM
same,TGI,[39],0.256 µM
same,GI50,[40],0.0436 µM
same,TGI,[40],0.347 µM
